Values after ≈ are worked out from the molar mass of the structure shown.
What was measured:
Format in all cases: functional
Conditions in all cases: time 16-20 hrs
Staphylococcus aureus = test: Antibacterial activity against Staphylococcus aureus ATCC 25923 incubated for 16 to 20 hrs by broth microdilution method
Escherichia coli = test: Antibacterial activity against Escherichia coli ATCC 25922 incubated for 16 to 20 hrs by broth microdilution method
Cronobacter sakazakii = test: Antibacterial activity against Cronobacter sakazakii ATCC 29544 incubated for 16 to 20 hrs by broth microdilution method
Klebsiella pneumoniae = test: Antibacterial activity against Klebsiella pneumoniae ATCC 13883 incubated for 16 to 20 hrs by broth microdilution method

SMILES | MIC (Staphylococcus aureus) | MIC (Escherichia coli) | MIC (Cronobacter sakazakii) | MIC (Klebsiella pneumoniae)
CC[C@H]1OC(=O)C[C@@H](O)[C@H](C)[C@@H](O[C@@H]2O[C@H](C)[C@@H](O)[C@H](N(C)C)[C@H]2O)[C@@H](CCN(Cc2ccc(N(C)C)cc2)Cc2cn(-c3cnc4ccccc4c3)nn2)C[C@@H](C)C(=O)/C=C/C(C)=C/[C@@H]1CI | 4 µg/mL (≈ 3.81 µM) | 32 µg/mL (≈ 30.5 µM) | 32 µg/mL (≈ 30.5 µM) | 16 µg/mL (≈ 15.2 µM)
CC[C@H]1OC(=O)C[C@@H](O)[C@H](C)[C@@H](O[C@@H]2O[C@H](C)[C@@H](O)[C@H](N(C)C)[C@H]2O)[C@@H](CCN(Cc2ccc(C)cc2)Cc2cn(-c3cnc4ccccc4c3)nn2)C[C@@H](C)C(=O)/C=C/C(C)=C/[C@@H]1CO | 0.5 µg/mL (≈ 0.549 µM) | 16 µg/mL (≈ 17.6 µM) | 16 µg/mL (≈ 17.6 µM) | 16 µg/mL (≈ 17.6 µM)
CC[C@H]1OC(=O)C[C@@H](O)[C@H](C)[C@@H](O[C@@H]2O[C@H](C)[C@@H](O)[C@H](N(C)C)[C@H]2O)[C@@H](CCN(Cc2ccc(C(F)(F)F)cc2)Cc2cn(-c3cnc4ccccc4c3)nn2)C[C@@H](C)C(=O)/C=C/C(C)=C/[C@@H]1CN1CCCCCCC1 | 1 µg/mL (≈ 0.943 µM) | 4 µg/mL (≈ 3.77 µM) | 32 µg/mL (≈ 30.2 µM) | 8 µg/mL (≈ 7.54 µM)
CC[C@H]1OC(=O)C[C@@H](O)[C@H](C)[C@@H](O[C@@H]2O[C@H](C)[C@@H](O)[C@H](N(C)C)[C@H]2O)[C@@H](CCN(C)Cc2cn(-c3cnc4ccccc4c3)nn2)C[C@@H](C)C(=O)/C=C/C(C)=C/[C@@H]1CN(C)CC | 1 µg/mL (≈ 1.16 µM) | 8 µg/mL (≈ 9.28 µM) | 8 µg/mL (≈ 9.28 µM) | 8 µg/mL (≈ 9.28 µM)
CC[C@H]1OC(=O)C[C@@H](O)[C@H](C)[C@@H](O[C@@H]2O[C@H](C)[C@@H](O)[C@H](N(C)C)[C@H]2O)[C@@H](CCN(Cc2ccc(N(C)C)cc2)Cc2cn(-c3cnc4ccccc4c3)nn2)C[C@@H](C)C(=O)/C=C/C(C)=C/[C@@H]1CN1CCCCC1 | 0.5 µg/mL (≈ 0.496 µM) | 4 µg/mL (≈ 3.97 µM) | 8 µg/mL (≈ 7.94 µM) | 8 µg/mL (≈ 7.94 µM)
CC[C@H]1OC(=O)C[C@@H](O)[C@H](C)[C@@H](O[C@@H]2O[C@H](C)[C@@H](O)[C@H](N(C)C)[C@H]2O)[C@@H](CCN(Cc2ccccc2)Cc2cn(-c3cnc4ccccc4c3)nn2)C[C@@H](C)C(=O)/C=C/C(C)=C/[C@@H]1CI | 2 µg/mL (≈ 1.99 µM) | 32 µg/mL (≈ 31.8 µM) | 32 µg/mL (≈ 31.8 µM) | 32 µg/mL (≈ 31.8 µM)
CCCN(CCC)C[C@H]1/C=C(C)/C=C/C(=O)[C@H](C)C[C@H](CCN(Cc2ccc(Br)cc2)Cc2cn(-c3cnc4ccccc4c3)nn2)[C@H](O[C@@H]2O[C@H](C)[C@@H](O)[C@H](N(C)C)[C@H]2O)[C@@H](C)[C@H](O)CC(=O)O[C@@H]1CC | 1 µg/mL (≈ 0.944 µM) | 8 µg/mL (≈ 7.55 µM) | 8 µg/mL (≈ 7.55 µM) | 8 µg/mL (≈ 7.55 µM)
CCCCN(CCCC)C[C@H]1/C=C(C)/C=C/C(=O)[C@H](C)C[C@H](CCN(C)Cc2cn(-c3cnc4ccccc4c3)nn2)[C@H](O[C@@H]2O[C@H](C)[C@@H](O)[C@H](N(C)C)[C@H]2O)[C@@H](C)[C@H](O)CC(=O)O[C@@H]1CC | 0.5 µg/mL (≈ 0.536 µM) | 8 µg/mL (≈ 8.58 µM) | 16 µg/mL (≈ 17.2 µM) | 16 µg/mL (≈ 17.2 µM)
CC[C@H]1OC(=O)C[C@@H](O)[C@H](C)[C@@H](O[C@@H]2O[C@H](C)[C@@H](O)[C@H](N(C)C)[C@H]2O)[C@@H](CCN(Cc2ccccc2)Cc2cn(-c3cnc4ccccc4c3)nn2)C[C@@H](C)C(=O)/C=C/C(C)=C/[C@@H]1CN1CCCCCC1 | 1 µg/mL (≈ 1.02 µM) | 4 µg/mL (≈ 4.09 µM) | 8 µg/mL (≈ 8.18 µM) | 4 µg/mL (≈ 4.09 µM)
CC[C@H]1OC(=O)C[C@@H](O)[C@H](C)[C@@H](O[C@@H]2O[C@H](C)[C@@H](O)[C@H](N(C)C)[C@H]2O)[C@@H](CCN(Cc2ccc(OC)cc2)Cc2cn(-c3cnc4ccccc4c3)nn2)C[C@@H](C)C(=O)/C=C/C(C)=C/[C@@H]1CN(C)C | 1 µg/mL (≈ 1.05 µM) | 8 µg/mL (≈ 8.38 µM) | 32 µg/mL (≈ 33.5 µM) | 8 µg/mL (≈ 8.38 µM)
CC[C@H]1OC(=O)C[C@@H](O)[C@H](C)[C@@H](O[C@@H]2O[C@H](C)[C@@H](O)[C@H](N(C)C)[C@H]2O)[C@@H](CCN(Cc2ccsc2)Cc2cn(-c3cnc4ccccc4c3)nn2)C[C@@H](C)C(=O)/C=C/C(C)=C/[C@@H]1CO | 0.25 µg/mL (≈ 0.277 µM) | 16 µg/mL (≈ 17.7 µM) | 32 µg/mL (≈ 35.4 µM) | 16 µg/mL (≈ 17.7 µM)
CC[C@H]1OC(=O)C[C@@H](O)[C@H](C)[C@@H](O[C@@H]2O[C@H](C)[C@@H](O)[C@H](N(C)C)[C@H]2O)[C@@H](CCN(Cc2ccccc2)Cc2cn(-c3cnc4ccccc4c3)nn2)C[C@@H](C)C(=O)/C=C/C(C)=C/[C@@H]1CN(C)C | 1 µg/mL (≈ 1.08 µM) | 8 µg/mL (≈ 8.66 µM) | 16 µg/mL (≈ 17.3 µM) | 4 µg/mL (≈ 4.33 µM)
CCCCN(CCCC)C[C@H]1/C=C(C)/C=C/C(=O)[C@H](C)C[C@H](CCN(Cc2ccc(Br)cc2)Cc2cn(-c3cnc4ccccc4c3)nn2)[C@H](O[C@@H]2O[C@H](C)[C@@H](O)[C@H](N(C)C)[C@H]2O)[C@@H](C)[C@H](O)CC(=O)O[C@@H]1CC | 1 µg/mL (≈ 0.92 µM) | 8 µg/mL (≈ 7.36 µM) | 16 µg/mL (≈ 14.7 µM) | 16 µg/mL (≈ 14.7 µM)
CC[C@H]1OC(=O)C[C@@H](O)[C@H](C)[C@@H](O[C@@H]2O[C@H](C)[C@@H](O)[C@H](N(C)C)[C@H]2O)[C@@H](CCN(Cc2cn(-c3cnc4ccccc4c3)nn2)Cc2ccco2)C[C@@H](C)C(=O)/C=C/C(C)=C/[C@@H]1CO | 0.125 µg/mL (≈ 0.141 µM) | 8 µg/mL (≈ 9.02 µM) | 32 µg/mL (≈ 36.1 µM) | 16 µg/mL (≈ 18 µM)
CCCN(CCC)C[C@H]1/C=C(C)/C=C/C(=O)[C@H](C)C[C@H](CCN(C)Cc2cn(-c3cnc4ccccc4c3)nn2)[C@H](O[C@@H]2O[C@H](C)[C@@H](O)[C@H](N(C)C)[C@H]2O)[C@@H](C)[C@H](O)CC(=O)O[C@@H]1CC | 0.25 µg/mL (≈ 0.276 µM) | 4 µg/mL (≈ 4.42 µM) | 8 µg/mL (≈ 8.85 µM) | 4 µg/mL (≈ 4.42 µM)
CCCN(C)C[C@H]1/C=C(C)/C=C/C(=O)[C@H](C)C[C@H](CCN(C)Cc2cn(-c3cnc4ccccc4c3)nn2)[C@H](O[C@@H]2O[C@H](C)[C@@H](O)[C@H](N(C)C)[C@H]2O)[C@@H](C)[C@H](O)CC(=O)O[C@@H]1CC | 0.5 µg/mL (≈ 0.571 µM) | 8 µg/mL (≈ 9.13 µM) | 16 µg/mL (≈ 18.3 µM) | 8 µg/mL (≈ 9.13 µM)
CC[C@H]1OC(=O)C[C@@H](O)[C@H](C)[C@@H](O[C@@H]2O[C@H](C)[C@@H](O)[C@H](N(C)C)[C@H]2O)[C@@H](CCN(Cc2cccnc2)Cc2cn(-c3cnc4ccccc4c3)nn2)C[C@@H](C)C(=O)/C=C/C(C)=C/[C@@H]1CO | 0.5 µg/mL (≈ 0.557 µM) | 32 µg/mL (≈ 35.6 µM) | 32 µg/mL (≈ 35.6 µM) | 32 µg/mL (≈ 35.6 µM)
CC[C@H]1OC(=O)C[C@@H](O)[C@H](C)[C@@H](O[C@@H]2O[C@H](C)[C@@H](O)[C@H](N(C)C)[C@H]2O)[C@@H](CCN(Cc2ccc(OC)cc2)Cc2cn(-c3cnc4ccccc4c3)nn2)C[C@@H](C)C(=O)/C=C/C(C)=C/[C@@H]1CN1CCCCC1 | 0.5 µg/mL (≈ 0.503 µM) | 4 µg/mL (≈ 4.02 µM) | 16 µg/mL (≈ 16.1 µM) | 8 µg/mL (≈ 8.05 µM)
CC[C@H]1OC(=O)C[C@@H](O)[C@H](C)[C@@H](O[C@@H]2O[C@H](C)[C@@H](O)[C@H](N(C)C)[C@H]2O)[C@@H](CCN(Cc2ccc(OC)cc2)Cc2cn(-c3cnc4ccccc4c3)nn2)C[C@@H](C)C(=O)/C=C/C(C)=C/[C@@H]1CN1CCCCCCC1 | 1 µg/mL (≈ 0.978 µM) | 4 µg/mL (≈ 3.91 µM) | 16 µg/mL (≈ 15.7 µM) | 16 µg/mL (≈ 15.7 µM)
CC[C@H]1OC(=O)C[C@@H](O)[C@H](C)[C@@H](O[C@@H]2O[C@H](C)[C@@H](O)[C@H](N(C)C)[C@H]2O)[C@@H](CCN(Cc2cn(-c3cnc4ccccc4c3)nn2)Cc2ccco2)C[C@@H](C)C(=O)/C=C/C(C)=C/[C@@H]1CN1CC(C)CC(C)C1 (stereo partly specified) | 2 µg/mL (≈ 2.04 µM) | 16 µg/mL (≈ 16.3 µM) | 16 µg/mL (≈ 16.3 µM) | 16 µg/mL (≈ 16.3 µM)
CC[C@H]1OC(=O)C[C@@H](O)[C@H](C)[C@@H](O[C@@H]2O[C@H](C)[C@@H](O)[C@H](N(C)C)[C@H]2O)[C@@H](CCN(Cc2ccccc2)Cc2cn(-c3cnc4ccccc4c3)nn2)C[C@@H](C)C(=O)/C=C/C(C)=C/[C@@H]1CN1CCC(O)CC1 | 2 µg/mL (≈ 2.04 µM) | 16 µg/mL (≈ 16.3 µM) | 16 µg/mL (≈ 16.3 µM) | 16 µg/mL (≈ 16.3 µM)
CC[C@H]1OC(=O)C[C@@H](O)[C@H](C)[C@@H](O[C@@H]2O[C@H](C)[C@@H](O)[C@H](N(C)C)[C@H]2O)[C@@H](CCN(Cc2ccc(C(F)(F)F)cc2)Cc2cn(-c3cnc4ccccc4c3)nn2)C[C@@H](C)C(=O)/C=C/C(C)=C/[C@@H]1CN1CCCCCC1 | 1 µg/mL (≈ 0.956 µM) | 4 µg/mL (≈ 3.82 µM) | 8 µg/mL (≈ 7.65 µM) | 4 µg/mL (≈ 3.82 µM)
CC[C@H]1OC(=O)C[C@@H](O)[C@H](C)[C@@H](O[C@@H]2O[C@H](C)[C@@H](O)[C@H](N(C)C)[C@H]2O)[C@@H](CCN(Cc2ccccc2)Cc2cn(-c3cnc4ccccc4c3)nn2)C[C@@H](C)C(=O)/C=C/C(C)=C/[C@@H]1CN(CC)CC | 0.25 µg/mL (≈ 0.263 µM) | 8 µg/mL (≈ 8.4 µM) | 8 µg/mL (≈ 8.4 µM) | 8 µg/mL (≈ 8.4 µM)
CC[C@H]1OC(=O)C[C@@H](O)[C@H](C)[C@@H](O[C@@H]2O[C@H](C)[C@@H](O)[C@H](N(C)C)[C@H]2O)[C@@H](CCN(Cc2ccccc2)Cc2cn(-c3cnc4ccccc4c3)nn2)C[C@@H](C)C(=O)/C=C/C(C)=C/[C@@H]1CN1CC(C)CC(C)C1 (stereo partly specified) | 4 µg/mL (≈ 4.03 µM) | 16 µg/mL (≈ 16.1 µM) | 16 µg/mL (≈ 16.1 µM) | 16 µg/mL (≈ 16.1 µM)
